Assay results as given in paper PMC7673538 (PLoS Biology, 2020).
Read-outs that look alike come from different tables or passages of the source.

Assays:
CV-B3 [1] = experiment: microbe, parasite or virus in culture; type: cell-based, coxsackievirus B3; conditions: Enterovirus B, CVB3, BGM
PV-1 = experiment: microbe, parasite or virus in culture; type: cell-based, poliovirus 1; conditions: Enterovirus C, HeLa R19, read-out: EC50 PV-1
HRV-A2 = experiment: microbe, parasite or virus in culture; type: cell-based, human rhinovirus; conditions: Human rhinovirus sp., HRVA2, HeLa R19, read-out: EC50 HRV-A2
in vitro [2] = conditions: human
CV-B3 [3] = experiment: microbe, parasite or virus in culture; type: cell-based, coxsackievirus B3; conditions: for EC50: Enterovirus B
EV-A71 = experiment: microbe, parasite or virus in culture; type: cell-based, enterovirus A71; conditions: Enterovirus A
in vitro [4] = conditions: human; remark: listed apart in the source
HRV-B14 = experiment: microbe, parasite or virus in culture; type: cell-based, human rhinovirus; conditions: Human rhinovirus sp.
EV-D68 = experiment: microbe, parasite or virus in culture; type: cell-based, enterovirus D68; conditions: Enterovirus D
in vitro [5] = conditions: monkey
CV-B3 [6] = experiment: microbe, parasite or virus in culture; type: cell-based, coxsackievirus B3; conditions: Enterovirus B
CV-A24 = experiment: microbe, parasite or virus in culture; type: cell-based, coxsackievirus A24; conditions: Enterovirus C, CVA24, HeLa R19, read-out: EC50 CV-A24
[7] = CVB3, HeLa R19, read-out: CV-B3 EC50 Average
[8] = CVB3, HeLa R19, read-out: CV-B3 Exp 1 EC50
[9] = CVB3, HeLa R19, read-out: CV-B3 Exp2 EC50
[10] = CVB3, HeLa R19, read-out: EC50 HelaR19 Average
[11] = CVB3, HeLa R19, read-out: Exp 1 EC50 HelaR19
[12] = CVB3, HeLa R19, read-out: Exp 2 EC50 HelaR19
[13] = EVA71, HeLa R19, read-out: EC50 EV-A71
[14] = HRVB14, HeLa R19, read-out: EC50 Exp1
[15] = HRVB14, HeLa R19, read-out: EC50 Exp2
[16] = HRVB14, HeLa R19, read-out: EC50 HRV-B14
[17] = EVD68, HeLa R19, read-out: EC50 Exp1
[18] = EVD68, HeLa R19, read-out: EC50 Exp2
[19] = CVB3, HAP1, read-out: EC50 Hap1 Average
[20] = CVB3, HAP1, read-out: Exp 1 EC50 Hap1
[21] = CVB3, HAP1, read-out: Exp 2 EC50 Hap1
[22] = EVD68, HeLa R19, read-out: EC50 EV-D68

| Compound | EC50 (CV-B3 [1]; read-out: EC50 BGM Average) | EC50 (CV-B3 [1]; read-out: Exp 1 EC50 BGM) | EC50 (CV-B3 [1]; read-out: Exp 2 EC50 BGM) | EC50 (PV-1) | EC50 (HRV-A2) | CC50 (in vitro [2]; CC50 Average) | CC50 (in vitro [2]; CC50 HelaR19 Average) | CC50 (in vitro [2]; Exp 1 CC50) | CC50 (in vitro [2]; Exp 1 CC50 HelaR19) | CC50 (in vitro [2]; Exp2 CC50) | CC50 (in vitro [2]; Exp 2 CC50 HelaR19) | EC50 (CV-B3 [3]; [8]) | EC50 (CV-B3 [3]; [9]) | EC50 (CV-B3 [3]; [11]) | EC50 (CV-B3 [3]; [12]) | EC50 (EV-A71; [13]) | CC50 (in vitro [4]; CC50 Hap1 Average) | CC50 (in vitro [4]; Exp 1 CC50 Hap1) | CC50 (in vitro [4]; Exp 2 CC50 Hap1) | EC50 (HRV-B14; [16]) | further results |
| --- | --- | --- | --- | --- | --- | --- | --- | --- | --- | --- | --- | --- | --- | --- | --- | --- | --- | --- | --- | --- | --- |
| O=C(c1ccco1)N(Cc1ccc(S(F)(F)(F)(F)F)cc1)c1ccccc1 [Compound 19f, N-(4-(Pentafluorosulfaneyl)benzyl)-N-phenylfuran-2-carboxamide] | 2.6 µM | 2.22 µM | 2.98 µM | > 30 µM | > 30 µM | > 30 µM | 32 µM | > 30 µM | 30 µM | > 30 µM | 34 µM | 3.52 µM | 2.68 µM | 3.45 µM | 3.11 µM | 4.37 ± 0.5 µM | 62.5 µM | 61 µM | 64.1 µM | 5.22 ± 0.54 µM | effect of the substitution on antiviral activity against CV-B3 (in words) (CV-B3 [3]): only marginally affected antiviral activity; EC50 (CV-B3 [3]; [7]): 3.1 µM; EC50 (CV-B3 [3]; [10]): 3.28 µM; EC50 (EV-A71; EVA71, HeLa R19, read-out: EC50 Exp1): 3.87 µM; EC50 (EV-A71; EVA71, HeLa R19, read-out: EC50 Exp2): 4.87 µM; EC50 (HRV-B14; [14]): 4.68 µM; EC50 (HRV-B14; [15]): 5.76 µM; EC50 (EV-D68; [17]): 13.6 µM; EC50 (EV-D68; [18]): 15.3 µM; CC50 (HeLa R19 cells; human): 32.9 ± 2 µM; cytotoxicity (in words) (HeLa R19 cells; human, monkey): cytotoxicity in a similar range as the parental compound 1; CC50 (in vitro [5]; CC50): 31.9 ± 1.41 µM; CC50 (in vitro [5]; CC50 BGM Average): 31.9 µM; CC50 (in vitro [5]; Exp 1 CC50 BGM): 30.5 µM; CC50 (in vitro [5]; Exp 2 CC50 BGM): 33.3 µM; EC50 (CV-B3 [6]; [19]): 2.1 µM; EC50 (CV-B3 [6]; [20]): 2.3 µM; EC50 (CV-B3 [6]; [21]): 1.9 µM; EC50 (CV-A24): > 30 µM |
| COc1ccc(N(Cc2ccc(F)cc2)C(=O)c2ccccn2)cc1 [Compound 5e, N-(4-fluorobenzyl)-N-(4-methoxyphenyl)picolinamide] | 17.8 µM | 16.7 µM | 18.9 µM | > 30 µM | > 30 µM | > 30 µM | > 100 µM | > 30 µM | > 100 µM | > 30 µM | > 100 µM | 6.02 µM | 6.86 µM | 8.41 µM | 9.32 µM | > 30 µM | > 100 µM | > 100 µM | > 100 µM | > 30 µM | EC50 (CV-B3 [3]; [7]): 6.44 µM; EC50 (CV-B3 [3]; [10]): 8.87 µM; CC50 (in vitro [4]; CC50): > 100 µM; EC50 (EV-D68; [22]): 10.5 ± 1.37 µM; EC50 (EV-D68; [17]): 11.8 µM; EC50 (EV-D68; [18]): 9.08 µM; cytotoxicity (in words) (HeLa R19 cells): no cytotoxicity; CC50 (in vitro [5]; CC50): > 100 µM; CC50 (in vitro [5]; CC50 BGM Average): > 100 µM; CC50 (in vitro [5]; Exp 1 CC50 BGM): > 100 µM; CC50 (in vitro [5]; Exp 2 CC50 BGM): > 100 µM; EC50 (CV-B3 [6]; CVB3, HAP1): 15.8 ± 1.65 µM; EC50 (CV-B3 [6]; [19]): 15.9 µM; EC50 (CV-B3 [6]; [20]): 17.5 µM; EC50 (CV-B3 [6]; [21]): 14.2 µM; EC50 (CV-A24): > 30 µM |
| COc1ccc(N(Cc2ccc(F)cc2)C(=O)c2cccs2)cc1 [Compound 5d, N-(4-Fluorobenzyl)-N-(4-methoxyphenyl)thiophene-2-carboxamide] | 0.63 µM | 0.49 µM | 0.77 µM | > 30 µM | > 30 µM | > 30 µM | 53 µM | > 30 µM | 52 µM | > 30 µM | 54.1 µM | 0.47 µM | 0.55 µM | 0.52 µM | 0.31 µM | > 30 µM | 53.9 µM | 53.9 µM | 54 µM | 9.29 ± 0.36 µM | increase of antiviral activity against CV-B3 (CV-B3 [3]): approximately 4 fold; EC50 (CV-B3 [3]; CVB3, HeLa R19, read-out: 50% effective concentration [EC50]): 0.51 ± 0.05 µM; EC50 (HRV-B14; [14]): 9.65 µM; EC50 (HRV-B14; [15]): 8.93 µM; EC50 (EV-D68; [22]): 2.82 ± 0.4 µM; EC50 (EV-D68; [17]): 2.42 µM; EC50 (EV-D68; [18]): 3.21 µM; cytotoxicity (in words) (HeLa R19 cells; human, monkey): cytotoxicity in a similar range as the parental compound 1; CC50 (in vitro [5]; CC50): 66 ± 1.05 µM; CC50 (in vitro [5]; CC50 BGM Average): 66 µM; CC50 (in vitro [5]; Exp 1 CC50 BGM): 65 µM; CC50 (in vitro [5]; Exp 2 CC50 BGM): 67.1 µM; EC50 (CV-B3 [6]; [19]): 0.25 µM; EC50 (CV-B3 [6]; [20]): 0.17 µM; EC50 (CV-A24): > 30 µM |
